These results are taken from patent US20080103191A1, “ENTACAPONE-DERIVATIVES” (priority 2006, published 2008).

Data set [1] in a line: Chemical hydrolysis stability at pH 1 and pH 7.4 (HPLC). Format: physicochemical. The settings on record: 37° C., over 12 h. The method, then: The stability of compounds of the present invention is tested at pH 1 and at pH 7.4. The testing is carried out by the following HPLC method:
Chemical hydrolysis rates t1/2 [h] of selected compounds of formula I are determined in 0.1 N HCl (pH 1) and PBS buffer (pH 7.4) solution. Solutions are prepared by dissolving an appropriate amount of compound in 0.1 N HCl and PBS buffer solution. Samples were withdrawn at designated time intervals and analysed for remaining prodrug by HPLC at 37° C. over 12 h.
Reversed phase gradient HPLC method, column YMC Pro C8, 50 mm×4.0 mm, 3 μm, Eluent A: Water:trifluoroacetic acid (100:0.5 (v/v)), Eluent B: Acetonitrile:trifluoroacetic:acid (100:0.5 (v/v)). Column temperature 30° C., Flow rate 3.0 mL/min, Detection wavelength: 220 nm
For evaluation, the peak area of the respective compound from the first injection is defined as 100% relative concentration. The peak areas of all other subsequent injections are calculated in percentage relating to this standard. (relative concentration in %). The relative concentrations are plotted in a logarithmic scale (ln) against the injection times. Based on the assumption of a first order kinetic, the rate constant and half life times (t1/2 [h]) can be calculated.

A short description of data set [2]: Solubility in 0.1 N HCl, PBS buffer, FaSSIF and FeSSIF. The settings on record: thermodynamic from solid. It is filed as physicochemical. The method, then: For testing solubility, saturated solutions of selected compounds of formula I are prepared in four different systems and compared to the solubility of entacapone. The solubility is tested in 0.1 N HCl (pH 1), PBS buffer (pH 7.4) and in two simulated gastric fluids, FaSSIF at pH 6.5 (for fasting state) and FeSSIF at pH 5.0 (for fed state) at ambient temperature. The content of the FaSSIF simulated gastric fluid is as follows:
The solubility testing is carried out by the following method: An excess amount of each compound is added to a 0.1 N HCl, PBS buffer, FeSSIF and FaSSIF. The suspensions are shaken for 10 min. After centrifugation the concentration is determined by HPLC. Reversed phase gradient HPLC method, column YMC Pro C8, 50 mm×4.0 mm, 3 μm, Eluent A: Water:trifluoroacetic acid (100:0.5 (v/v)), Eluent B: Acetonitrile:trifluoroacetic:acid (100:0.5 (v/v)). Column temperature 30° C., Flow rate 3.0 mL/min, Detection wavelength: 220 nm

Data set [3] in a line: Log D (pH 7.4) by isocratic HPLC. It is filed as physicochemical. As to conditions: YMC Pro C18 column, phosphate buffer pH 7.4/acetonitrile 45/55. The method, then: LogD is an indicator for absorption and lipophilicity for ionized compounds under defined pH conditions and is measured by applying an isocratic HPLC Method at pH 7.4.
The log D has been tested at pH 7.4. The testing has been carried out by the following method: Isocratic HPLC method: Column YMC Pro C18, 150 mm×4.0 mm, 3 μm, Eluent Phosphate buffer pH 7.4/acetonitrile (45/55, (v/v)), Runtime 15-60 min, Flow rate 1.2 ml/min, Detection wavelength: 220 nm

Data set [4] in a line: Permeability in Caco-2 cells, apical to basolateral. Format: in vitro ADME. On the set-up: dose or concentration left out as unconfirmed. The settings on record: human; 21d Caco-2 monolayer, apical pH 6.5 to basolateral pH 7.4, 60 minutes. An excerpt: The human adenocarcinoma cell line Caco-2 is used as an in vitro system to predict oral absorption. These cells serve as a model of small bowel tissue and permeation through these cells is a predictor for gastro-intestinal absorption. Further to being a model for oral absorption, permeability in Caco-2 cells may be predictive for the blood brain barrier permeability (P. Garberg et al.; Toxicology in vitro 19 (2005); 299-334). […] The permeability in Caco-2 cells has been tested by the following method:
The permeability of selected compounds of formula I across Caco-2 (21d Caco-2-culture) monolayer in the apical to basolateral direction is investigated. Control substances were ^3H-propranolol and ^3H-mannitol.
The nominal concentration of the test items is […]. The pH value is set to 6.5 for the apical transport medium and to 7.4 for the basolateral medium. Samples are obtained following 60 minutes (120 minutes for control samples) incubation from the basolateral receiver chamber. At sampling time approximately 600 μL of each well are transferred into an eppendorf vial and stored between −12° and −30° C. until HPLC or LC-MS/MS analysis. The control substances are quantified by liquid scintillation.

A short description of data set [5]: Solubility in Labrasol and TPGS/PG formulations. It is filed as physicochemical. The method, then:
Selected lipophilic carbonate compounds of formula I with promising Caco-2 permeabilities are formulated with different lipids/lipophilic excipients and/or micelles forming compounds in order to increase their solubilities. The following formulations are prepared by mixing the ingredients mentioned below: • i) Formulations comprising solubilizers in the form of lipides/lipophilic excipients: • ia) Formulation comprising Labrasol® and the selected compounds of Formula I • Labrasol®: • Caprylocaproyl macrogol-8-glyceride (CAS No. 85536-07-8 and 84963-88-2). This is a mixture of mono-, di- and triesters of glycerol and of PEG 400 with medium-chain fatty acids (C8-C10) which is marketed, for example, by Gattefossé under the mark Labrasol®; Labrasol® has an HLB value (hydrophil-lipophil-balance, Griffin, W. C.: Classification of surface active agents by HLB, J. Soc. Cosmet. 1, 1949) of 14 and has the following composition by weight:
• ib) Formulation comprising NanoSolve® 5401 (Lipoid GmbH, Germany) and the selected compounds of formula I • ic) Formulation comprising TPGS/PG in a weight ratio of 25% by weight of TPGS to 75% by weight of PG and the selected compounds of formula I. • PG: propylene glycol • TPGS: Vitamin E TPGS NF (d-α-tocopheryl polyethylene glycol 1000 succinate) which is marketed, for example, by Eastman Chemical Co • ii) Formulation comprising a micelles forming agent: • iia) Aqueous formulation comprising 30% by weight of Cremophor® RH 40 (relating to the weight of the aqueous phase) in water and the selected compounds of formula I • Cremophor® RH 40: • Generic names: • Polyoxyl 40 Hydrogenated Castor Oil (USP/NF). • Macrogol-Glycerolhydroxystearat (DAB). • Polyoxyethylenglyceroltrihydroxystearat (DAC). • Cremophor RH 40 is a non-ionic solubilizer and emulsifying agent obtained by reacting 45 moles of ethylene oxide with 1 mole of hydrogenated castor oil. The main constituent of Cremophor RH 40 is glycerol polyethylene glycol oxystearate, which, together with fatty acid glycerol polyglycol esters, forms the hydrophobic part of the product. The hydrophilic part consists of polyethylene glycols and glycerol ethoxylate. Cremophor RH 40 is a white to yellowish thin paste at 20° C. The HLB value lies between 14 and 16. Cremophor RH 40 is marketed by BASF AG.
The solubility of selected compounds of formula I in these formulations is measured and compared to the solubility of the compounds in 0.1N HCl (pH 1.0), PBS buffer (pH 7.4), and two simulated gastric fluids (i.e., FaSSIF (pH 6.5) simulating fasting sate and FeSSIF (pH 5.0) simulating fed state) (see above for details).

A short description of data set [6]: Storage stability at ambient temperature. As to conditions: glass bottles, more than two years, reanalysis by HPLC/MS and NMR. Format: physicochemical.
[7] abbreviates: 0.1 N HCl, pH 1, simulated gastric fluid, Table 11, maximum solubility, read-out: Solubility 0.1N HCl pH 1.0.
The mark [8] stands for this setting: 0.1 N HCl, pH 1, simulated gastric fluid, ambient temperature, shaken 10 min, read-out: Solubility 0.1N HCl Ph 1.0.
The mark [9] stands for this setting: FaSSIF, pH 6.5, fassif, Table 11, read-out: Solubility FaSSIF pH 6.5.
[10] abbreviates: FaSSIF, pH 6.5, fassif, fasting state fluid, ambient temperature, read-out: Solubility FaSSIF Ph 6.5.
[11] abbreviates: FeSSIF, pH 5, fessif, Table 11, read-out: Solubility FeSSIF pH 5.0.
Where [12] appears, read: FeSSIF, pH 5, fessif, fed state fluid, ambient temperature, read-out: Solubility FeSSIF Ph 5.0.
Setting [13] is: PBS buffer, pH 7.4, aqueous buffer, Table 11, read-out: Solubility PBS pH 7.4.
Setting [14] is: PBS buffer, pH 7.4, aqueous buffer, ambient temperature, read-out: Solubility PBS Ph 7.4.
The mark [15] stands for this setting: Labrasol, oil or lipid, read-out: Solubility Labrasol ®.

Converted amounts (≈) assume the structure as drawn. Where two headings read alike, the source gives them in different places.

For `CCC(CC)OC(=O)Oc1cc(/C=C(\C#N)C(=O)N(CC)CC)cc([N+](=O)[O-])c1O` [Compound 10, Carbonic acid 5-((E)-2-cyano-2-diethylcarbamoyl-vinyl)-2-hydroxy-3-nito-phenyl ester 1-ethyl-propyl ester], the half-life in data set [1] (pH 1, 0.1 N HCl, read-out: t1/2 at pH 1 (converted)) was 38.5 h; in data set [1] (pH 7.4, PBS buffer, read-out: t1/2 at pH 7.4 (converted)) it was 38.5 h. For the same compound, the solubility at 10 min in data set [2] (setting [7]) was 30 µg/mL (≈ 71.5 µM); in data set [2] (setting [8]), 30 µg/mL (≈ 71.5 µM); in data set [2] (setting [9]), 840 µg/mL (≈ 2000 µM); in data set [2] (setting [10]), 840 µg/mL (≈ 2000 µM); in data set [2] (setting [11]) it was 1330 µg/mL (≈ 3170 µM); in data set [2] (setting [12]) it was 190 µg/mL (≈ 453 µM). Also, the results for the solubility at 10 min in data set [2] (setting [13]) and in data set [2] (setting [14]) were 190 µg/mL (≈ 453 µM) and 1330 µg/mL (≈ 3170 µM), respectively. In data set [3], this compound registered a chromatographic logD of 1.8. The apical-to-basolateral permeability (Papp A→B) at 60 min in data set [4] is 22.4 ×10⁻⁶ cm/s. Also, the solubility in data set [5] (setting [15]) is 22000 µg/mL (≈ 52500 µM); in data set [5] (organic solvent or mixture, 25% by weight TPGS, 75% by weight PG, read-out: Solubility TPGS/PG), 3900 µg/mL (≈ 9300 µM).

With `CCN(CC)C(=O)/C(C#N)=C/c1cc(O)c(O)c([N+](=O)[O-])c1` [entacapone, (E)-N,N-diethyl-2-cyano-3-(3,4-dihydroxy-5-nitrophenyl)acrylamide], the “t1/2 at pH 1” value in data set [1] (0.1 N HCl) was “stable”. The “t1/2 at pH 7.4” value in data set [1] (PBS buffer) is “stable”. The solubility at 10 min in data set [2] (setting [7]) is 50 µg/mL (≈ 164 µM); in data set [2] (setting [8]) it was 50 µg/mL (≈ 164 µM); in data set [2] (setting [9]), 150 µg/mL (≈ 491 µM); in data set [2] (setting [10]), 150 µg/mL (≈ 491 µM); in data set [2] (setting [11]) it was 990 µg/mL (≈ 3240 µM); in data set [2] (setting [12]) it was 990 µg/mL (≈ 3240 µM). Further, the solubility at 10 min in data set [2] (setting [13]) and in data set [2] (setting [14]) was 1350 µg/mL (≈ 4420 µM) in each case. In addition, in data set [3], the chromatographic logD amounted to 0.5. In data set [4], this compound had a Papp A→B at 60 min of 17 ×10⁻⁶ cm/s. Further, in data set [5] (setting [15]), the solubility was 23000 µg/mL (≈ 75300 µM). Also, in data set [6], the degradation on storage entry is “without degradation”.
